Data reported in patent US11254705B2, “Cyclic peptide analogs and conjugates thereof” (Sirenas LLC, priority 2016, dated 2022).

Test system: HCC1954 cells
Test: Inhibition of HCC1954 cell growth (method analogous to BT-474)
Assay type: cell-based
Conditions: Homo sapiens
Procedure: BT-474 human mammary gland ductal carcinoma cells were seeded in a clear polystyrene 96-well microculture plate (Corning® Costar® 96-well flat bottom plate, Cat. #3997) in a total volume of 90 μL/well. After 24 hours of incubation in a humidified incubator at 37° C. with 5% CO2 and 95% air, 10 μL of 10×, serially diluted test agents in growth medium were added to each well (10 pt dose response curve, highest concentration 10 μM of test agent). After 72 hours of culture in a humidified incubator at 37° C., in an atmosphere of 5% CO2 and 95% air, the plated cells and Cell Titer-Glo® (Protnega G7571) reagents were brought to room temperature to equilibrate for 30 minutes. 100 μL of Cell Titer-Glo® reagent was added to each well. The plate was shaken for two minutes and then left to equilibrate for ten minutes. The media/Cell Titer-Glo® reagent was transferred to a white polystyrene 96-well microculture plate (Corning® Costar® 96-well flat bottom plate, Cat. #3917) before reading luminescence on a Tecan GENios microplate reader.
Percent inhibition of cell growth was calculated relative to untreated control wells. The IC50 value for the test agents was determined using Prism 6.05 by curve-fitting of the data using the following four parameter-logistic equation:
[formula] where Top is the maximal % of control absorbance, Bottom is the minimal % of control absorbance at the highest agent concentration, Y is the % of control absorbance, X is the agent concentration, IC50 is the concentration of agent that inhibits cell growth by 50% compared to the control cells, and n is the slope of the curve.
Inhibitory response of test compounds against HCC1954 cells was determined using a method analogous to that used for BT-474 cells.

| Compound | IC50 |
| --- | --- |
| C/C=C(\C)[C@H]1OC(=O)[C@@H](C)NC(=O)[C@H]([C@H](C)CC)NC(=O)CN(C)C(=O)[C@@H](Cc2ccccc2)N(C)C(=O)[C@H](C)NC(=O)[C@@H](CC(C)C)OC(=O)/C(C)=C/C[C@H](OC(=O)NCCc2ccc(O)cc2)[C@@H]1C [Compound 10, (2R,5S,8R,14S,17R,20S,21S,22S,E)-8-benzyl-20-((E)-but-2-en-2-yl)-14-((R)-sec-butyl)-2-isobutyl-5,7,10,17,21,25-hexamethyl-3,6,9,12,15,18,26-heptaoxo-1,19-dioxa-4,7,10,13,16-pentaazacyclohexacos-24-en-22-yl (4-hydroxyphenethyl)carbamate] | 1.36 nM |
| C/C=C(\C)[C@H]1OC(=O)[C@@H](C)NC(=O)[C@H]([C@H](C)CC)NC(=O)CN(C)C(=O)[C@@H](Cc2ccccc2)N(C)C(=O)[C@H](C)NC(=O)[C@@H](CC(C)C)OC(=O)/C(C)=C/C[C@H](OC(=O)NCc2ccc(CO)cc2)[C@@H]1C [Compound 12, (2R,5S,8R,14S,17R,20S,21S,22S,E)-8-benzyl-20-((E)-but-2-en-2-yl)-14-((R)-sec-butyl)-2-isobutyl-5,7,10,17,21,25-hexamethyl-3,6,9,12,15,18,26-heptaoxo-1,19-dioxa-4,7,10,13,16-pentaazacyclohexacos-24-en-22-yl (4-(hydroxymethyl)benzyl)carbamate] | 3.29 nM |
| C/C=C(\C)[C@H]1OC(=O)[C@@H](C)NC(=O)[C@H]([C@H](C)CC)NC(=O)CN(C)C(=O)[C@@H](Cc2ccccc2)N(C)C(=O)[C@H](C)NC(=O)[C@@H](CC(C)C)OC(=O)/C(C)=C/C[C@H](OC(=O)NCCCCCCCCCCCCO)[C@@H]1C [Compound 13, (2R,5S,8R,14S,17R,20S,21S,22S,E)-8-benzyl-20-((E)-but-2-en-2-yl)-14-((R)-sec-butyl)-2-isobutyl-5,7,10,17,21,25-hexamethyl-3,6,9,12,15,18,26-heptaoxo-1,19-dioxa-4,7,10,13,16-pentaazacyclohexacos-24-en-22-yl (12-hydroxydodecyl)carbamate] | 18.1 nM |
| C/C=C(\C)[C@H]1OC(=O)[C@@H](C)NC(=O)[C@H]([C@H](C)CC)NC(=O)CN(C)C(=O)[C@@H](Cc2ccc(Cl)cc2)N(C)C(=O)[C@H](C)NC(=O)[C@@H](CC(C)C)OC(=O)/C(C)=C/C[C@H](OC(=O)NCCCCCO)[C@@H]1C [Compound 16, (2R,5S,8R,14S,17R,20S,21S,22S,E)-20-((E)-but-2-en-2-yl)-14-((R)-sec-butyl)-8-(4-chlorobenzyl)-2-isobutyl-5,7,10,17,21,25-hexamethyl-3,6,9,12,15,18,26-heptaoxo-1,19-dioxa-4,7,10,13,16-pentaazacyclohexacos-24-en-22-yl (5-hydroxypentyl)carbamate] | 0.1 nM |
| C/C=C(\C)[C@H]1OC(=O)[C@@H](C)NC(=O)[C@H]([C@H](C)CC)NC(=O)CN(C)C(=O)[C@@H](Cc2ccc(Cl)cc2)N(C)C(=O)[C@H](C)NC(=O)[C@@H](CC(C)C)OC(=O)/C(C)=C/C[C@H](OC(=O)NCCOCCO)[C@@H]1C [Compound 17, (2R,5S,8R,14S,17R,20S,21S,22S,E)-20-((E)-but-2-en-2-yl)-14-((R)-sec-butyl)-8-(4-chlorobenzyl)-2-isobutyl-5,7,10,17,21,25-hexamethyl-3,6,9,12,15,18,26-heptaoxo-1,19-dioxa-4,7,10,13,16-pentaazacyclohexacos-24-en-22-yl (2-(2-hydroxyethoxy)ethyl)carbamate] | 4.15 nM |
| C/C=C(\C)[C@H]1OC(=O)[C@@H](C)NC(=O)[C@H]([C@H](C)CC)NC(=O)CN(C)C(=O)[C@@H](Cc2ccc(Cl)cc2)N(C)C(=O)[C@H](C)NC(=O)[C@@H](CC(C)C)OC(=O)/C(C)=C/C[C@H](OC(=O)NCCc2ccc(O)cc2)[C@@H]1C [Compound 18, (2R,5S,8R,14S,17R,20S,21S,22S,E)-20-((E)-but-2-en-2-yl)-14-((R)-sec-butyl)-8-(4-chlorobenzyl)-2-isobutyl-5,7,10,17,21,25-hexamethyl-3,6,9,12,15,18,26-heptaoxo-1,19-dioxa-4,7,10,13,16-pentaazacyclohexacos-24-en-22-yl (4-hydroxyphenethyl)carbamate] | 2.37 nM |
| C/C=C(\C)[C@H]1OC(=O)[C@@H](C)NC(=O)[C@H](C(C)CC)NC(=O)CN(C)C(=O)[C@@H](Cc2ccc(Cl)cc2)N(C)C(=O)[C@H](C)NC(=O)[C@@H](CC(C)C)OC(=O)/C(C)=C/C[C@H](OC(=O)N(C)CCCCCCNC)[C@@H]1C (stereo partly drawn) [Compound 19, (2R,5S,8R,14S,17R,20S,21S,22S,E)-20-((E)-but-2-en-2-yl)-14-((R)-sec-butyl)-8-(4-chlorobenzyl)-2-isobutyl-5,7,10,17,21,25-hexamethyl-3,6,9,12,15,18,26-heptaoxo-1,19-dioxa-4,7,10,13,16-pentaazacyclohexacos-24-en-22-yl methyl (6-(methylamino)hexyl)carbamate] | 4.16 nM |
| C/C=C(\C)[C@H]1OC(=O)[C@@H](C)NC(=O)[C@H]([C@H](C)CC)NC(=O)CN(C)C(=O)[C@@H](Cc2ccc(Cl)cc2)N(C)C(=O)[C@H](C)NC(=O)[C@@H](CC(C)C)OC(=O)/C(C)=C/C[C@H](OC(=O)N(C)CCCCCCCCCCCCNC)[C@@H]1C [Compound 20, (2R,5S,8R,14S,17R,20S,21S,22S,E)-20-((E)-but-2-en-2-yl)-14-((R)-sec-butyl)-8-(4-chlorobenzyl)-2-isobutyl-5,7,10,17,21,25-hexamethyl-3,6,9,12,15,18,26-heptaoxo-1,19-dioxa-4,7,10,13,16-pentaazacyclohexacos-24-en-22-yl methyl(12-(methylamino)dodecyl)carbamate] | 15.4 nM |
| C/C=C(\C)[C@H]1OC(=O)C(C)(C)NC(=O)[C@H]([C@H](C)CC)NC(=O)CN(C)C(=O)[C@@H](Cc2ccc(Cl)cc2)N(C)C(=O)[C@H](C)NC(=O)[C@@H](CC(C)C)OC(=O)/C(C)=C/C[C@H](O)[C@@H]1C [Compound 21, (6S,12R,15S,18R,24S,25S,26S,E)-26-((E)-but-2-en-2-yl)-6-((R)-sec-butyl)-12-(4-chlorobenzyl)-24-hydroxy-18-isobutyl-3,3,10,13,15,21,25-heptamethyl-1,19-dioxa-4,7,10,13,16-pentaazacyclohexacos-21-ene-2,5,8,11,14,17,20-heptaone] | 0.56 nM |
| C/C=C(\C)[C@H]1OC(=O)C(C)(C)NC(=O)[C@H](C(C)CC)NC(=O)CN(C)C(=O)[C@@H](Cc2ccc(Cl)cc2)N(C)C(=O)[C@H](C)NC(=O)[C@@H](CC(C)C)OC(=O)/C(C)=C/C[C@H](OC(=O)NCCCCCO)[C@@H]1C (stereo partly drawn) [Compound 22, (2R,5S,8R,14S,20S,21S,22S,E)-20-((E)-but-2-en-2-yl)-14-((R)-sec-butyl)-8-(4-chlorobenzyl)-2-isobutyl-5,7,10,17,17,21,25-heptamethyl-3,6,9,12,15,18,26-heptaoxo-1,19-dioxa-4,7,10,13,16-pentaazacyclohexacos-24-en-22-yl(5-hydroxypentyl)carbamate] | 7.26 nM |
| C/C=C(\C)[C@H]1OC(=O)C(C)(C)NC(=O)[C@H]([C@H](C)CC)NC(=O)CN(C)C(=O)[C@@H](Cc2ccc(Cl)cc2)N(C)C(=O)[C@H](C)NC(=O)[C@@H](CC(C)C)OC(=O)/C(C)=C/C[C@H](OC(=O)N(C)CCCCCCNC)[C@@H]1C [Compound 23, (2R,5S,8R,14S,20S,21S,22S,E)-20-((E)-but-2-en-2-yl)-14-((R)-sec-butyl)-8-(4-chlorobenzyl)-2-isobutyl-5,7,10,17,17,21,25-heptamethyl-3,6,9,12,15,18,26-heptaoxo-1,19-dioxa-4,7,10,13,16-pentaazacyclohexacos-24-en-22-yl methyl(6-(methylamino)hexyl)carbamate] | 0.47 nM |
| C/C=C(\C)[C@H]1OC(=O)C(C)(C)NC(=O)[C@H]([C@H](C)CC)NC(=O)CN(C)C(=O)[C@@H](Cc2ccc(Cl)cc2)N(C)C(=O)[C@H](C)NC(=O)[C@@H](CC(C)C)OC(=O)/C(C)=C/C[C@H](OC(=O)N(C)CCCCCCN(C)C(C)=O)[C@@H]1C [Compound 24, (2R,5S,8R,14S,20S,21S,22S,E)-20-((E)-but-2-en-2-yl)-14-((R)-sec-butyl)-8-(4-chlorobenzyl)-2-isobutyl-5,7,10,17,17,21,25-heptamethyl-3,6,9,12,15,18,26-heptaoxo-1,19-dioxa-4,7,10,13,16-pentaazacyclohexacos-24-en-22-yl methyl(6-(N-methylacetamido)hexyl)carbamate] | 2.07 nM |
| C/C=C(\C)[C@H]1OC(=O)C(C)(C)NC(=O)[C@H]([C@H](C)CC)NC(=O)CN(C)C(=O)[C@@H](Cc2ccc(Cl)cc2)N(C)C(=O)[C@H](C)NC(=O)[C@@H](CC(C)C)OC(=O)/C(C)=C/C[C@H](OC(=O)N2CCN(CCO)CC2)[C@@H]1C [Compound 26, (2R,5S,8R,14S,20S,21S,22S,E)-20-((E)-but-2-en-2-yl)-14-((R)-sec-butyl)-8-(4-chlorobenzyl)-2-isobutyl-5,7,10,17,17,21,25-heptamethyl-3,6,9,12,15,18,26-heptaoxo-1,19-dioxa-4,7,10,13,16-pentaazacyclohexacos-24-en-22-yl 4-(2-hydroxyethyl)piperazine-1-carboxylate] | 1.36 nM |
